Results reported in PMC9697080 (International Journal of Molecular Sciences, 2022).
Where “and” joins values, the source holds several entries; their conditions need not be identical. Equal entries are not always repeated.

Columns and labels:
HIV-1 protease [1] = target: T1, HIV-1 protease (Human immunodeficiency virus type 1 group M subtype B, UniProt P04585); test: biochemical; format: biochemical; conditions: for IC50: IC50 (HIV-1 protease inhibition)
[2] = tested on: VSV-G-pseudotyped HIV-1 (pHIV-1NL4-3); test: microbe, parasite or virus in culture; format: cell-based; conditions: for inhibition at 10 µM: Human immunodeficiency virus 1, SUP-T1, read-out: Inhibition (%) (10 μM), effects on late-stage HIV-1; for EC50: Human immunodeficiency virus 1, read-out: Mean EC50 HIV-1NL4-3
[3] = Cytotoxicity assay (CCK8 Assay Kit); conditions: human
[4] = tested on: DRV-resistant HIV-1 variant pHIV-1DRV^RS (V32I, L33F, I54M, I84V); test: microbe, parasite or virus in culture; format: cell-based; conditions: for EC50: Human immunodeficiency virus 1, read-out: Mean EC50 HIVDRV^Rs
HIV-1 protease [5] = target: T1, HIV-1 protease; test: biochemical; format: binding
HEK293T cells = test: Cytotoxicity assay (CCK8 Assay Kit); conditions: HEK293T (293T) cells, CCK8, 24 h
[6] = tested on: influenza virus strain H1N1; set-up: method as in PMID 26077494; conditions: read-out: IC50 against influenza H1N1; cited from earlier work
[7] = tested on: influenza virus strain H5N1; conditions: read-out: IC50 against influenza H5N1; cited from earlier work
[8] = tested on: influenza virus strain H3N2; set-up: method as in PMID 26077494; conditions: read-out: IC50 against influenza H3N2; cited from earlier work
[9] = HEK293T cells, CC50, HEK293T (293T) cells, CCK8, 24 h

## COc1ccc(S(=O)(=O)N(CC(C)C)C[C@@H](O)[C@H](Cc2ccccc2)NC(=O)c2ccccc2O)cc1 [15a]
HIV-1 protease [1]
  IC50: 3.34 ± 0.28 nM
[2]
  inhibition at 10 µM: 98 ± 2%
[3]; [9]
  CC50 at 24 h: > 100000 nM

## COc1ccc(S(=O)(=O)N(CC(C)C)C[C@@H](O)[C@H](Cc2ccccc2)NC(=O)c2ccc(Cl)cc2O)cc1 [15b]
HIV-1 protease [1]
  IC50: 7.82 ± 0.93 nM
[2]
  inhibition at 10 µM: 96 ± 3%
  EC50: 1400 ± 23 nM
[4]
  Fold Resistance, EC50 (mutant)/EC50 (WT): 1.31 fold
  EC50: 1840 ± 39.6 nM
HIV-1 protease [5]
  Kd: 7100 nM
[3]; [9]
  CC50 at 24 h: > 20000 nM
HEK293T cells
  CC50: 33900 nM

## COc1ccc(S(=O)(=O)N(CC(C)C)C[C@@H](O)[C@H](Cc2ccccc2)NC(=O)c2ccc(OC)cc2O)cc1 [15c]
HIV-1 protease [1]
  IC50: 4.68 ± 0.74 nM
[2]
  inhibition at 10 µM: 92 ± 5%
[3]; [9]
  CC50 at 24 h: > 100000 nM

## COc1ccc(S(=O)(=O)N(CC(C)C)C[C@@H](O)[C@H](Cc2ccccc2)NC(=O)c2ccc(O)c(O)c2)cc1 [15d]
HIV-1 protease [1]
  IC50: 0.0059 ± 0.0007 nM
[2]
  Effectivity in single-round infection assay compared with DRV: equipotent with DRV
  inhibition at 10 µM: 100%
  EC50: 15.4 ± 2.17 nM
[4]
  EC50: 402 ± 47.3 nM
[3]; [9]
  CC50 at 24 h: > 20000 nM
HEK293T cells
  CC50: 38200 nM

## COc1ccc(S(=O)(=O)N(CC(C)C)C[C@@H](O)[C@H](Cc2ccccc2)NC(=O)c2ccc(O)cc2O)cc1 [15e]
HIV-1 protease [1]
  IC50: 0.3 ± 0.08 nM
[2]
  inhibition at 10 µM: 75 ± 6%
[3]; [9]
  CC50 at 24 h: 78800 nM

## COc1ccc(S(=O)(=O)N(CC(C)C)C[C@@H](O)[C@H](Cc2ccccc2)NC(=O)c2cc(O)cc(O)c2)cc1 [15f]
HIV-1 protease [1]
  Enhancement of enzymatic inhibitory activity compared with DRV: over 200 fold
  IC50: 0.0024 ± 0.0004 nM
[2]
  Effectivity in single-round infection assay compared with DRV: equipotent with DRV
  inhibition at 10 µM: 100%
  EC50: 28.9 ± 9.21 nM
[4]
  Fold Resistance, EC50 (mutant)/EC50 (WT): 1.57 fold
  EC50: 45.5 ± 12.1 nM

## COc1ccc(S(=O)(=O)N(CC(C)C)C[C@@H](O)[C@H](Cc2ccccc2)NC(=O)c2cc(O)c(O)c(O)c2)cc1 [15g]
HIV-1 protease [1]
  IC50: 1.13 ± 0.23 nM
[2]
  inhibition at 10 µM: 99 ± 1%
[3]; [9]
  CC50 at 24 h: > 100000 nM

## COc1ccc(S(=O)(=O)N(CC(C)C)C[C@@H](O)[C@H](Cc2ccccc2)NC(=O)c2cc(OC)c(O)c(OC)c2)cc1 [15h]
HIV-1 protease [1]
  IC50: 0.08 ± 0.03 nM
[2]
  inhibition at 10 µM: 99 ± 2%
[3]; [9]
  CC50 at 24 h: 84700 nM

## COc1ccc(S(=O)(=O)N(CC(C)C)C[C@@H](O)[C@H](Cc2ccccc2)NC(=O)c2cc(OC)c(OC)cc2O)cc1 [15i]
HIV-1 protease [1]
  IC50: 1.41 ± 0.43 nM
[3]; [9]
  CC50 at 24 h: > 100000 nM

## CC(C)CN(C[C@@H](O)[C@H](Cc1ccccc1)NC(=O)c1ccccc1O)S(=O)(=O)c1ccc(N)cc1 [16a]
HIV-1 protease [1]
  IC50: 0.54 ± 0.11 nM
[2]
  Effectivity in single-round infection assay compared with DRV: equipotent with DRV
  inhibition at 10 µM: 100%
[3]; [9]
  CC50 at 24 h: > 100000 nM

## CC(C)CN(C[C@@H](O)[C@H](Cc1ccccc1)NC(=O)c1ccc(Cl)cc1O)S(=O)(=O)c1ccc(N)cc1 [16b]
HIV-1 protease [1]
  IC50: 0.31 ± 0.08 nM
[2]
  inhibition at 10 µM: 98 ± 2%
[3]; [9]
  CC50 at 24 h: > 100000 nM

## COc1ccc(C(=O)N[C@@H](Cc2ccccc2)[C@H](O)CN(CC(C)C)S(=O)(=O)c2ccc(N)cc2)c(O)c1 [16c]
HIV-1 protease [1]
  IC50: 4.14 ± 1.38 nM
[2]
  inhibition at 10 µM: 90 ± 6%
[3]; [9]
  CC50 at 24 h: > 100000 nM

## CC(C)CN(C[C@@H](O)[C@H](Cc1ccccc1)NC(=O)c1ccc(O)c(O)c1)S(=O)(=O)c1ccc(N)cc1 [16d]
HIV-1 protease [1]
  IC50: 1.63 ± 0.33 nM
[2]
  Effectivity in single-round infection assay compared with DRV: equipotent with DRV
  inhibition at 10 µM: 100%
[3]; [9]
  CC50 at 24 h: > 100000 nM

## CC(C)CN(C[C@@H](O)[C@H](Cc1ccccc1)NC(=O)c1ccc(O)cc1O)S(=O)(=O)c1ccc(N)cc1 [16e]
HIV-1 protease [1]
  IC50: 0.43 ± 0.08 nM
[2]
  inhibition at 10 µM: 75 ± 8%
[3]; [9]
  CC50 at 24 h: > 100000 nM

## CC(C)CN(C[C@@H](O)[C@H](Cc1ccccc1)NC(=O)c1cc(O)cc(O)c1)S(=O)(=O)c1ccc(N)cc1 [16f]
HIV-1 protease [1]
  IC50: 0.27 ± 0.03 nM
[2]
  inhibition at 10 µM: 99 ± 2%
[3]; [9]
  CC50 at 24 h: > 100000 nM

## CC(C)CN(C[C@@H](O)[C@H](Cc1ccccc1)NC(=O)c1cc(O)c(O)c(O)c1)S(=O)(=O)c1ccc(N)cc1 [16g]
HIV-1 protease [1]
  IC50: 68 nM and 68.2 nM
[2]
  inhibition at 10 µM: 55 ± 6%
[3]; [9]
  CC50 at 24 h: 57600 nM

## COc1cc(C(=O)N[C@@H](Cc2ccccc2)[C@H](O)CN(CC(C)C)S(=O)(=O)c2ccc(N)cc2)cc(OC)c1O [16h]
HIV-1 protease [1]
  IC50: 0.04 ± 0.003 nM
[2]
  inhibition at 10 µM: 99 ± 3%
[3]; [9]
  CC50 at 24 h: > 100000 nM

## COc1cc(O)c(C(=O)N[C@@H](Cc2ccccc2)[C@H](O)CN(CC(C)C)S(=O)(=O)c2ccc(N)cc2)cc1OC [16i]
HIV-1 protease [1]
  IC50: 0.6 ± 0.18 nM
[3]; [9]
  CC50 at 24 h: > 100000 nM

## CSc1ccc(S(=O)(=O)N(CC(C)C)C[C@@H](O)[C@H](Cc2ccccc2)NC(=O)c2ccccc2O)cc1 [17a]
HIV-1 protease [1]
  IC50: 3.97 ± 0.41 nM
[3]; [9]
  CC50 at 24 h: > 100000 nM

## CSc1ccc(S(=O)(=O)N(CC(C)C)C[C@@H](O)[C@H](Cc2ccccc2)NC(=O)c2ccc(Cl)cc2O)cc1 [17b]
HIV-1 protease [1]
  IC50: 2.79 ± 0.44 nM
[3]; [9]
  CC50 at 24 h: > 100000 nM

## COc1ccc(C(=O)N[C@@H](Cc2ccccc2)[C@H](O)CN(CC(C)C)S(=O)(=O)c2ccc(SC)cc2)c(O)c1 [17c]
HIV-1 protease [1]
  IC50: 8.21 ± 1.2 nM
[3]; [9]
  CC50 at 24 h: > 100000 nM

## CSc1ccc(S(=O)(=O)N(CC(C)C)C[C@@H](O)[C@H](Cc2ccccc2)NC(=O)c2ccc(O)c(O)c2)cc1 [17d]
HIV-1 protease [1]
  IC50: 0.0076 ± 0.0029 nM
[2]
  Effectivity in single-round infection assay compared with DRV: equipotent with DRV
  inhibition at 10 µM: 100%
[3]; [9]
  CC50 at 24 h: > 100000 nM

## CSc1ccc(S(=O)(=O)N(CC(C)C)C[C@@H](O)[C@H](Cc2ccccc2)NC(=O)c2ccc(O)cc2O)cc1 [17e]
HIV-1 protease [1]
  IC50: 0.4 ± 0.08 nM
[3]; [9]
  CC50 at 24 h: > 100000 nM

## CSc1ccc(S(=O)(=O)N(CC(C)C)C[C@@H](O)[C@H](Cc2ccccc2)NC(=O)c2cc(O)cc(O)c2)cc1 [17f]
HIV-1 protease [1]
  IC50: 0.0066 ± 0.0021 nM
[2]
  Effectivity in single-round infection assay compared with DRV: equipotent with DRV
  inhibition at 10 µM: 100%
[3]; [9]
  CC50 at 24 h: > 100000 nM

## COc1cc(C(=O)N[C@@H](Cc2ccccc2)[C@H](O)CN(CC(C)C)S(=O)(=O)c2ccc(SC)cc2)cc(OC)c1O [17h]
HIV-1 protease [1]
  IC50: 0.32 ± 0.03 nM
[3]; [9]
  CC50 at 24 h: > 100000 nM

## COc1cc(O)c(C(=O)N[C@@H](Cc2ccccc2)[C@H](O)CN(CC(C)C)S(=O)(=O)c2ccc(SC)cc2)cc1OC [17i]
HIV-1 protease [1]
  IC50: 4.71 ± 0.18 nM
[3]; [9]
  CC50 at 24 h: > 100000 nM

## CC(C)CN(C[C@@H](O)[C@H](Cc1ccccc1)NC(=O)O[C@H]1CO[C@H]2OCC[C@H]21)S(=O)(=O)c1ccc(N)cc1 [DRV, Darunavir, reference compound]
[2]
  inhibition at 10 µM: 100%
  EC50: 1.8 ± 0.73 nM
[4]
  EC50: 136.8 ± 1.12 nM
[3]
  CC50 at 24 h: > 100000 nM

## O=c1oc2cc(/C=C/c3ccc(O)c(O)c3)oc(=O)c2c2cc(O)c(O)cc12 [Phelligridin D]
[6]
  IC50: 8800 nM
[7]
  IC50: 10900 nM
[8]
  IC50: 10300 nM
